The record followed here is ChEMBL document CHEMBL2177000, “Pharmacokinetic optimization of class-selective histone deacetylase inhibitors and identification of associated candidate predictive biomarkers of hepatocellular carcinoma tumor response” (J Med Chem, 2012).

Broadly, the IC50 is the concentration that gives 50% inhibition.

The target of test [1] is Cytochrome P450 2C19 (Homo sapiens, UniProt P33261). In words: Inhibition of CYP2C19 in human liver microsomes in presence of NADPH by LC-MS/MS method. It is filed as ADME, Microsome. (In general: Liver microsomes are vesicles of endoplasmic reticulum, rich in cytochrome P450 enzymes.)
For test [2], the target named is T1, Histone deacetylase 11 (Homo sapiens, UniProt Q96DB2).
T1 sequence (Q96DB2 whole entry): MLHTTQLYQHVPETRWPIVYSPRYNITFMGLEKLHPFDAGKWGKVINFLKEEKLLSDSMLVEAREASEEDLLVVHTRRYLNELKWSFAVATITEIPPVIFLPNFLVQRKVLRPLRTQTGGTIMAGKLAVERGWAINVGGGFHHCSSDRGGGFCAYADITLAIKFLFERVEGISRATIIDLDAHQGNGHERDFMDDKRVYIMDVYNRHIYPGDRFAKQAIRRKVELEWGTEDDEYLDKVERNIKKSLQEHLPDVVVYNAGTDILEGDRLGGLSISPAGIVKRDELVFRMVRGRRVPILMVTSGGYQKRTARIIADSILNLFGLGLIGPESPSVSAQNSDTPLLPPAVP
In words: Inhibition of HDAC11 using p53 (379 to 382 residues) based fluorogenic peptide substrate.

Test [3] has as its target T2, Polyamine deacetylase HDAC10 (Homo sapiens, UniProt Q969S8).
T2 sequence (Q969S8 whole entry): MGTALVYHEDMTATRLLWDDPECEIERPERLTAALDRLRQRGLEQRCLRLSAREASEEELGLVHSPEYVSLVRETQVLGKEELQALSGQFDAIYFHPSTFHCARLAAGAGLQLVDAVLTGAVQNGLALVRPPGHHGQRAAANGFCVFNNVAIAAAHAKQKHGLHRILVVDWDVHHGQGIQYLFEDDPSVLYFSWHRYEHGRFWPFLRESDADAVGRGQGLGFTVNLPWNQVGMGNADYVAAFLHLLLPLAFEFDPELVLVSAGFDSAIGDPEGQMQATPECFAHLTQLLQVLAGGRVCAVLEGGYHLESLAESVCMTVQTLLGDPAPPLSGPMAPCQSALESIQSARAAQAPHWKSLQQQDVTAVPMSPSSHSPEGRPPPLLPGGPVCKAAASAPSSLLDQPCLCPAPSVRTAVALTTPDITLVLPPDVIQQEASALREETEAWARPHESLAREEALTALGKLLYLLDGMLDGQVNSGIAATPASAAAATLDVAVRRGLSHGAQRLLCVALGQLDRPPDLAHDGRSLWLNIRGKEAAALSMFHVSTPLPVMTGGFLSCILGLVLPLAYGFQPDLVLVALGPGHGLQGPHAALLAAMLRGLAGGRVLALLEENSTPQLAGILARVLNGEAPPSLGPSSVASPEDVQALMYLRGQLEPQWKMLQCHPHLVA
In words: Inhibition of HDAC10 using p53 (379 to 382 residues) based fluorogenic peptide substrate.

Test [4] deals with Histone deacetylase 9 (Homo sapiens, UniProt Q9UKV0). The test can be described thus: Inhibition of HDAC9 using p53 (379 to 382 residues) based fluorogenic peptide substrate.
The target in test [5] is T3, Protein deacetylase HDAC6 (Homo sapiens, UniProt Q9UBN7).
T3 sequence (Q9UBN7 whole entry): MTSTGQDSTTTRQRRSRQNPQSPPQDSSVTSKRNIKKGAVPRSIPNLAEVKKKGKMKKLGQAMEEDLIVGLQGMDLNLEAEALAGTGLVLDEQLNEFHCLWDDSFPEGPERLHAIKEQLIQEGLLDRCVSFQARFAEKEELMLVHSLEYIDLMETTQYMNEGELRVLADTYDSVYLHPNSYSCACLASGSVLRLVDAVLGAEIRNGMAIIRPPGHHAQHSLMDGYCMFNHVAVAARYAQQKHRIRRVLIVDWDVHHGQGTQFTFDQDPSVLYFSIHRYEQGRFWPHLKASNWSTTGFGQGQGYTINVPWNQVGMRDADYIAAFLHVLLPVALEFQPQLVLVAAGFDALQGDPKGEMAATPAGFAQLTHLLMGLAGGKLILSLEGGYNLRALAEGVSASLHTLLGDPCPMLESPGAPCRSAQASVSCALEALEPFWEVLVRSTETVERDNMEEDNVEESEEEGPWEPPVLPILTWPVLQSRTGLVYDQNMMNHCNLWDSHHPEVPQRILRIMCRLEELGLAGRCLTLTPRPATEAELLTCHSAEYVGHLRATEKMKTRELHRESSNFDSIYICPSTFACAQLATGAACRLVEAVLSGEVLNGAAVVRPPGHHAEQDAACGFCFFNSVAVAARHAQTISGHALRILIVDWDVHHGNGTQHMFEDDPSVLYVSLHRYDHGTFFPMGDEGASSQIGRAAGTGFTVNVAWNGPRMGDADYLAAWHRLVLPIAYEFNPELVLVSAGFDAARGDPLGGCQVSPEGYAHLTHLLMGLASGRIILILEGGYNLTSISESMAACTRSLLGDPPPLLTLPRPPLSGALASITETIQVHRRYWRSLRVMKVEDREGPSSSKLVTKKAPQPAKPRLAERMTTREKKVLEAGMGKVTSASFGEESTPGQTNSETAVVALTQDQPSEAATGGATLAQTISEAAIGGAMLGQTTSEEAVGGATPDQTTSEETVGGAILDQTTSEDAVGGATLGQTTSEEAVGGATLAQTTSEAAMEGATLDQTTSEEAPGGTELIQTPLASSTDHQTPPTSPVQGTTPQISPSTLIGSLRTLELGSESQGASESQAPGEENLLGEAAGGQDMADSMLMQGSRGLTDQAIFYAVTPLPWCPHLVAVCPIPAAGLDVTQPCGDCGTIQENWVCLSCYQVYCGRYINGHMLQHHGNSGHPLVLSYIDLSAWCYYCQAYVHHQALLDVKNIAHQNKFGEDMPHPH
The test can be described thus: Inhibition of HDAC6 using p53 (379 to 382 residues) based fluorogenic peptide substrate.

Test [6] addresses Histone deacetylase 5 (Homo sapiens, UniProt Q9UQL6). In words: Inhibition of HDAC5 using p53 (379 to 382 residues) based fluorogenic peptide substrate.
The target of test [7] is Histone deacetylase 4 (Homo sapiens, UniProt P56524). The test can be described thus: Inhibition of HDAC4 using p53 (379 to 382 residues) based fluorogenic peptide substrate.
The target of test [8] is Histone deacetylase 1 (Homo sapiens, UniProt Q13547). The test can be described thus: Inhibition of HDAC1 using p53 (379 to 382 residues) based fluorogenic peptide substrate.
Test [9] concerns the target Histone deacetylase 2 (Homo sapiens, UniProt Q92769). In words: Inhibition of HDAC2 using p53 (379 to 382 residues) based fluorogenic peptide substrate.

Each structure is given as a SMILES string.

Sequence of Histone deacetylase 5 (Q9UQL6 whole entry, the tested form may be a part): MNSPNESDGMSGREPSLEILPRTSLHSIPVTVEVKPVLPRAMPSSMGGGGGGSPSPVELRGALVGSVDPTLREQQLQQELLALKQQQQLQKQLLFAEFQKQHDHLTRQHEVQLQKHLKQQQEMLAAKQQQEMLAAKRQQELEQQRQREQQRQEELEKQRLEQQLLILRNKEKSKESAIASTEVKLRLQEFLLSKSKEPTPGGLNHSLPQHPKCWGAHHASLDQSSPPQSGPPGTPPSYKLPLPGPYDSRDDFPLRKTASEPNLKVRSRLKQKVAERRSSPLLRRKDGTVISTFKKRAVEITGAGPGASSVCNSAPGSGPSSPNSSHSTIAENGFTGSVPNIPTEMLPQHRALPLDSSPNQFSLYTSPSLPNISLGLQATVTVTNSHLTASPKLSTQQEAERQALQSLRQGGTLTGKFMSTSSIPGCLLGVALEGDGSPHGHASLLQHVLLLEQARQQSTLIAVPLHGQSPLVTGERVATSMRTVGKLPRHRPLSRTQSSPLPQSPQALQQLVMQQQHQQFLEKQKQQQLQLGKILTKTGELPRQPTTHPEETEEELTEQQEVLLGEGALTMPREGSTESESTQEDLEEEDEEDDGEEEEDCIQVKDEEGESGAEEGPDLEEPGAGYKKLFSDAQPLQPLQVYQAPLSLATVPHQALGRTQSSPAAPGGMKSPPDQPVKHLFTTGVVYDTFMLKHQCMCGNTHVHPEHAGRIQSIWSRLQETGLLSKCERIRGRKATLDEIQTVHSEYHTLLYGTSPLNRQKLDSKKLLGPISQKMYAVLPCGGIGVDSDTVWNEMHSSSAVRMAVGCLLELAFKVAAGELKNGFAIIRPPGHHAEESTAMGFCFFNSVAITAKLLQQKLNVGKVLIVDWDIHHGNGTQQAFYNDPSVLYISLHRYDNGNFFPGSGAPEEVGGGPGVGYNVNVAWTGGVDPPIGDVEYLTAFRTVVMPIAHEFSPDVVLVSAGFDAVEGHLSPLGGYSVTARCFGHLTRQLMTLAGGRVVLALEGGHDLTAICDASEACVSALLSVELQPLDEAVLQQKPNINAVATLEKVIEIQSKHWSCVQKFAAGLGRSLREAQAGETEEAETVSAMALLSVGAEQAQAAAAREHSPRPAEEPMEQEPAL
Sequence of Cytochrome P450 2C19 (P33261 whole entry): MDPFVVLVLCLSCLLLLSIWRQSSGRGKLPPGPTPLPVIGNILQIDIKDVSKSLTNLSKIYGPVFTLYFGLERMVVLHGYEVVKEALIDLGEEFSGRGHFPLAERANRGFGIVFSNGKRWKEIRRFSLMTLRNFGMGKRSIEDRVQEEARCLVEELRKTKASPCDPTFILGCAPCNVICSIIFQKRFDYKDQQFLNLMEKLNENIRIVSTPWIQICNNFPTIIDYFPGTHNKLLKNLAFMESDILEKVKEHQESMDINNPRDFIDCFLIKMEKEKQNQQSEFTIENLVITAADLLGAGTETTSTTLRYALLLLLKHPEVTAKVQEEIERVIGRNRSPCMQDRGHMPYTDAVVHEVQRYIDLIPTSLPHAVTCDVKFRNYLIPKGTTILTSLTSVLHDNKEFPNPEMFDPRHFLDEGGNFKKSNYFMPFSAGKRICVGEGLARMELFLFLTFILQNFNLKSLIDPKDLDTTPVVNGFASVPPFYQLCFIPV
Sequence of Histone deacetylase 1 (Q13547 whole entry, the tested form may be a part): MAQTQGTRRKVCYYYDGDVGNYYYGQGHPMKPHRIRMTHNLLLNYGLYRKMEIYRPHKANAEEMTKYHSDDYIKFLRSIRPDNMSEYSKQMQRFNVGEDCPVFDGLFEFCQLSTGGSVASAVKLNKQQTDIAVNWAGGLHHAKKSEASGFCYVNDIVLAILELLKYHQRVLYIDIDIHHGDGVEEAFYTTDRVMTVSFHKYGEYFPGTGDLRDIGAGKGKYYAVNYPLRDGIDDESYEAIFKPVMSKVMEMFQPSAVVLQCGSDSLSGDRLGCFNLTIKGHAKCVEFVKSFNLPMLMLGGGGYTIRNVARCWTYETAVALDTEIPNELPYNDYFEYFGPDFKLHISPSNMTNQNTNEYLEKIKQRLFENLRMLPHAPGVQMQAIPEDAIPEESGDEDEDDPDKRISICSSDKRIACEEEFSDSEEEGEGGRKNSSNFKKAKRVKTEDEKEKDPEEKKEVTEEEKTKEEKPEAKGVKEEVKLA
Sequence of Histone deacetylase 2 (Q92769 whole entry, the tested form may be a part): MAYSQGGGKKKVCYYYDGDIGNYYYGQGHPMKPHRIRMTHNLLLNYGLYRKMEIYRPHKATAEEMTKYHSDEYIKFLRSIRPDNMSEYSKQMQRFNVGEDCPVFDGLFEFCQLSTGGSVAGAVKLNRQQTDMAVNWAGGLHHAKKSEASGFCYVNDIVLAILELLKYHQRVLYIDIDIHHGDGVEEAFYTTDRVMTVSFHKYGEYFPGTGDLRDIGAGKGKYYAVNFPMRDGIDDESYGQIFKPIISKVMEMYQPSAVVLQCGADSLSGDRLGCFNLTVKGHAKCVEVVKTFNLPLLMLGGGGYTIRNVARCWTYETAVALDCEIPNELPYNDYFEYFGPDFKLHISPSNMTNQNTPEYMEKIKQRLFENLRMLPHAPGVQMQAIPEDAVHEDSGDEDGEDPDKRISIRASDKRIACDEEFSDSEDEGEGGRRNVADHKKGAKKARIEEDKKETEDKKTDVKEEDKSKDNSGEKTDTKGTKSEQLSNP
Sequence of Histone deacetylase 9 (Q9UKV0 whole entry, the tested form may be a part): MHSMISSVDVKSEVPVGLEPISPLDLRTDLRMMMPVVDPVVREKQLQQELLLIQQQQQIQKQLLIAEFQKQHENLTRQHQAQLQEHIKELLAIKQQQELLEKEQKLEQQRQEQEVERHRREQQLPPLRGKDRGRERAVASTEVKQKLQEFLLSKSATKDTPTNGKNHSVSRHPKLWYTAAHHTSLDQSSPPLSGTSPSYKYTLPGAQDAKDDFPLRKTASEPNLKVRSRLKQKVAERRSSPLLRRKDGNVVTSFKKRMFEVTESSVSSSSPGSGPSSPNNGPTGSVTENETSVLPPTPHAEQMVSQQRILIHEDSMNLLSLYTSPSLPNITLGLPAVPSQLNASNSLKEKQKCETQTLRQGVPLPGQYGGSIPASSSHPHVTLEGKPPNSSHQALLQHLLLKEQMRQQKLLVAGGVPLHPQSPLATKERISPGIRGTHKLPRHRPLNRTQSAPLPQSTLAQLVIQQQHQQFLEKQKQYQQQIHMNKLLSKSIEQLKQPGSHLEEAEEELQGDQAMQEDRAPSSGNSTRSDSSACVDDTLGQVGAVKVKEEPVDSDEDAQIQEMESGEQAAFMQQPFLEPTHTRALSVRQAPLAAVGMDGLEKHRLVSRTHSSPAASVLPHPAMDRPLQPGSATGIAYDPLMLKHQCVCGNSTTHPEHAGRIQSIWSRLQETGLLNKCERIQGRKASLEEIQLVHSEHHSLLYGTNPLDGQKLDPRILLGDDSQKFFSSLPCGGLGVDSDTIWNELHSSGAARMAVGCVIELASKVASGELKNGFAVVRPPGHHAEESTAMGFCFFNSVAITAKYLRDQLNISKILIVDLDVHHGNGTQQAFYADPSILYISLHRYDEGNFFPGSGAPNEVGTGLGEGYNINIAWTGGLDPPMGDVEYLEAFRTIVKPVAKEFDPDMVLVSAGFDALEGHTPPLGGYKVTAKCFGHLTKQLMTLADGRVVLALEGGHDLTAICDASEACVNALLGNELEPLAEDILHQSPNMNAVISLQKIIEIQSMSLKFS
Sequence of Histone deacetylase 4 (P56524 whole entry, the tested form may be a part): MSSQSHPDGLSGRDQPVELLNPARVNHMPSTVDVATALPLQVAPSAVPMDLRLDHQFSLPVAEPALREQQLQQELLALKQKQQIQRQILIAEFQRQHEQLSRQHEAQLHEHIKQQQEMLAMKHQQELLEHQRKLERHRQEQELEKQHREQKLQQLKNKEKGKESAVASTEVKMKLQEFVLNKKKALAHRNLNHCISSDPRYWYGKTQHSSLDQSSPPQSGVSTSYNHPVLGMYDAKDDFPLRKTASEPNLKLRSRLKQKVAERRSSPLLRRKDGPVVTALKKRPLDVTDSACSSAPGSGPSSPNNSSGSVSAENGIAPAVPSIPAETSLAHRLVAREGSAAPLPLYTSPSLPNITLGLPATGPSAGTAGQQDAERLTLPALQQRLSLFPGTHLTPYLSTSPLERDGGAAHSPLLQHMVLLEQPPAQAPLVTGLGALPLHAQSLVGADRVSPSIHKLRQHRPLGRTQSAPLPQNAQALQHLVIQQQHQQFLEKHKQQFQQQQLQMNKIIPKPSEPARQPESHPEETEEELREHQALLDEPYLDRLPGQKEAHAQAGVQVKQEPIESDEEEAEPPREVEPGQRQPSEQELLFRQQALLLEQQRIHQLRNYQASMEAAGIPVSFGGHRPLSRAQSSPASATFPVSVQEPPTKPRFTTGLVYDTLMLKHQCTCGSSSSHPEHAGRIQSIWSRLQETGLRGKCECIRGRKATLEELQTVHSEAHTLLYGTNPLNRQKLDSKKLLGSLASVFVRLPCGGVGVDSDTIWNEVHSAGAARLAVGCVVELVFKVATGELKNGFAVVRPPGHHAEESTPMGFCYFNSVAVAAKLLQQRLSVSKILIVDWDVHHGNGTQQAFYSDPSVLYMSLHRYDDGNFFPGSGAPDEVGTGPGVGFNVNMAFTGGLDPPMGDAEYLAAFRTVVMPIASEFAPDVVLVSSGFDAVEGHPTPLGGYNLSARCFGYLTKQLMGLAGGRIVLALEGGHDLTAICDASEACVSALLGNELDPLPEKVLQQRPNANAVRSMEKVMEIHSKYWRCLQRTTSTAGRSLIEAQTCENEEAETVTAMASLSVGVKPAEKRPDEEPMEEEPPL

Take `CN1C[C@H](C(=O)Nc2ccc(Cl)cc2)[C@@H](c2ccc(/C=C/C(=O)Nc3ccccc3N)cc2F)C1` (racemic): the IC50 in [1] was 21 µM; in test [2], more than 30 µM; in test [3], 5 µM; in test [4], 43 µM; in [5] it was more than 30 µM; in test [6], 5.3 µM. Moreover, the IC50 in [7] is 46 µM; in [8], 100 nM; in test [9], 220 nM.

`CN1C[C@@H](C(=O)Nc2ccc(Cl)cc2)[C@H](c2ccc(/C=C/C(=O)Nc3ccccc3N)cc2)C1`: the IC50 in [1] is 43 µM; in test [2], 20 µM; in [3] it was 1.6 µM; in test [4] it was 13 µM; in [5] it was more than 30 µM; in test [6], 1.1 µM. Moreover, the IC50 in test [7] was determined as 36 µM; in test [8], 140 nM; in [9], 270 nM.

As to `CN1C[C@H](C(=O)Nc2ccc(Cl)cc2)[C@@H](c2ccc(/C=C/C(=O)Nc3ccccc3N)cc2)C1`, the IC50 is 43 µM in [1]; 14 µM in [2]; 3.4 µM in test [3]; 16 µM in test [4]; more than 30 µM in [5]; 3.5 µM in test [6]. The IC50 in test [7] stood at 13 µM; in test [8], 60 nM; in test [9], 250 nM.
